Reference: PubChem BioAssay (NCI)
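Values below derive from 48-hour exposures of cells grown in 96-well plates, with endpoints linearly interpolated between the two concentrations bracketing the appropriate inhibition level. Definition used: TGI = concentration required for complete inhibition of growth.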

How the values were obtained:
Experiment in all cases: NCI anticancer screen, dose series, 48 h
[1] = test system: HL-60(TB) leukemia
[2] = test system: MDA-MB-231 breast
[3] = test system: SNB-19 CNS
[4] = test system: SK-MEL-28 melanoma
[5] = test system: NCI-H460 lung
[6] = test system: DU-145 prostate
[7] = test system: K-562 leukemia
[8] = test system: SF-295 CNS
[9] = test system: HS 578T breast
[10] = test system: NCI-H23 lung
[11] = test system: CCRF-CEM leukemia
[12] = test system: NCI-H522 lung
[13] = test system: SF-268 CNS
[14] = test system: ACHN renal
[15] = test system: EKVX NSCLC
[16] = test system: A549 NSCLC
[17] = test system: KM12 colon
[18] = test system: SK-OV-3 ovarian
[19] = test system: OVCAR-4 ovarian
[20] = test system: A498 renal
[21] = test system: UO-31 renal
[22] = test system: MALME-3M melanoma
[23] = test system: NCI-H226 lung
[24] = test system: TK-10 renal
[25] = test system: UACC-257 melanoma
[26] = test system: UACC-62 melanoma
[27] = test system: OVCAR-5 ovarian
[28] = test system: HCT-116 colon
[29] = test system: COLO 205 colon
[30] = test system: MDA-MB-435
[31] = test system: IGROV1 ovarian
[32] = test system: HOP-92 NSCLC
[33] = test system: MCF7 breast
[34] = test system: HT29 colon
[35] = test system: SK-MEL-5 melanoma
[36] = test system: PC-3 prostate
[37] = test system: RXF 393 renal
[38] = test system: RPMI-8226 leukemia
[39] = test system: MDA-N
[40] = test system: MOLT-4 leukemia
[41] = test system: SN12C renal
[42] = test system: 786-0 renal
[43] = test system: SNB-75 CNS
[44] = test system: SK-MEL-2 melanoma
[45] = test system: SF-539 CNS
[46] = test system: HCT-15 colon
[47] = test system: CAKI-1 renal
[48] = test system: SW-620 colon
[49] = test system: U251 CNS
[50] = test system: BT-549 breast
[51] = test system: OVCAR-8 ovarian
[52] = test system: T-47D breast
[53] = test system: M14 melanoma
[54] = test system: HCC-2998 colon
[55] = test system: HOP-62 NSCLC
[56] = test system: NCI/ADR-RES ovarian
[57] = test system: OVCAR-3 ovarian
[58] = test system: LOX IMVI melanoma

For `Cc1[nH]n(-c2nc(O)c(C)c(=O)[nH]2)c(=O)c1CCO`, the TGI [1] was > 100 µM, the TGI [2] was > 100 µM and the TGI [3] was > 100 µM. The TGI [4] was > 100 µM, the TGI [5] was > 100 µM and the TGI [6] was > 100 µM. The TGI [7] was > 100 µM, the TGI [8] was > 100 µM and the TGI [9] was > 100 µM. For the same compound, the TGI [10] was > 100 µM, the TGI [11] was > 100 µM and the TGI [12] was > 100 µM. For the same compound, the TGI [13] was > 100 µM, the TGI [14] was > 100 µM and the TGI [15] was > 100 µM. The TGI [16] was > 100 µM, the TGI [17] was > 100 µM and the TGI [18] was > 100 µM. For the same compound, the TGI [19] was > 100 µM, the TGI [20] was > 100 µM and the TGI [21] was > 100 µM. The TGI [22] was > 100 µM, the TGI [23] was > 100 µM and the TGI [24] was > 100 µM. For the same compound, the TGI [25] was > 100 µM, the TGI [26] was > 100 µM and the TGI [27] was > 100 µM. For the same compound, the TGI [28] was > 100 µM, the TGI [29] was > 100 µM and the TGI [30] was > 100 µM. The TGI [31] was > 100 µM, the TGI [32] was > 100 µM and the TGI [33] was > 100 µM. For the same compound, the TGI [34] was > 100 µM, the TGI [35] was > 100 µM and the TGI [36] was > 100 µM. The TGI [37] was 93.3 µM, the TGI [38] was > 100 µM and the TGI [39] was > 100 µM. For the same compound, the TGI [40] was > 100 µM, the TGI [41] was > 100 µM and the TGI [42] was > 100 µM. The TGI [43] was > 100 µM, the TGI [44] was > 100 µM and the TGI [45] was > 100 µM. For the same compound, the TGI [46] was > 100 µM, the TGI [47] was > 100 µM and the TGI [48] was > 100 µM. For the same compound, the TGI [49] was > 100 µM, the TGI [50] was > 100 µM and the TGI [51] was > 100 µM. For the same compound, the TGI [52] was > 100 µM and the TGI [53] was > 100 µM.
In the case of `COc1ccccc1/C=C1/Sc2scc(CC(=O)Nc3ccccc3)[n+]2C1=O`, the TGI [1] is reported as 47.1 µM, the TGI [2] is reported as 70.8 µM and the TGI [3] is reported as > 100 µM. For the same compound, the TGI [4] was > 100 µM, the TGI [5] was > 100 µM and the TGI [6] was > 100 µM. For the same compound, the TGI [8] was > 100 µM, the TGI [9] was > 100 µM and the TGI [10] was > 100 µM. The TGI [11] was 51.7 µM, the TGI [12] was 73.4 µM and the TGI [13] was > 100 µM. For the same compound, the TGI [54] was > 100 µM, the TGI [14] was > 100 µM and the TGI [15] was > 100 µM. The TGI [16] was > 100 µM, the TGI [17] was > 100 µM and the TGI [18] was 71.7 µM. The TGI [19] was > 100 µM, the TGI [21] was 70.7 µM and the TGI [55] was > 100 µM. It also gave a TGI [23] of 69.7 µM, a TGI [24] of 74.3 µM and a TGI [25] of 80.4 µM. The TGI [26] was 45.1 µM, the TGI [27] was > 100 µM and the TGI [28] was > 100 µM. The TGI [29] was 65.4 µM, the TGI [30] was > 100 µM and the TGI [31] was > 100 µM. For the same compound, the TGI [32] was 52.3 µM, the TGI [33] was > 100 µM and the TGI [34] was > 100 µM. For the same compound, the TGI [35] was 36 µM, the TGI [36] was 93.3 µM and the TGI [37] was 80.8 µM. The TGI [39] was 69.9 µM, the TGI [40] was 56.2 µM and the TGI [41] was > 100 µM. The TGI [42] was > 100 µM, the TGI [43] was > 100 µM and the TGI [44] was 73.3 µM. The TGI [45] was > 100 µM, the TGI [46] was > 100 µM and the TGI [56] was 59.9 µM. For the same compound, the TGI [47] was > 100 µM, the TGI [48] was > 100 µM and the TGI [49] was > 100 µM. For the same compound, the TGI [50] was 93.2 µM, the TGI [51] was > 100 µM and the TGI [57] was 43.4 µM. The TGI [58] was > 100 µM and the TGI [53] was > 100 µM.
In the case of `c1cncc(C(Nc2cccc3cccnc23)Nc2cccc3cccnc23)c1`, the TGI [1] is reported as > 100 µM, the TGI [2] is reported as > 100 µM and the TGI [3] is reported as > 100 µM. The TGI [5] was > 100 µM, the TGI [6] was > 100 µM and the TGI [7] was > 100 µM. For the same compound, the TGI [8] was > 100 µM, the TGI [9] was > 100 µM and the TGI [10] was > 100 µM. For the same compound, the TGI [11] was > 100 µM, the TGI [12] was > 100 µM and the TGI [13] was > 100 µM. The TGI [54] was > 100 µM, the TGI [14] was > 100 µM and the TGI [15] was > 100 µM. The TGI [16] was > 100 µM, the TGI [17] was > 100 µM and the TGI [18] was > 100 µM. The TGI [21] was > 100 µM, the TGI [55] was > 100 µM and the TGI [24] was > 100 µM. The TGI [25] was > 100 µM, the TGI [26] was > 100 µM and the TGI [27] was > 100 µM. For the same compound, the TGI [28] was > 100 µM, the TGI [29] was > 100 µM and the TGI [30] was > 100 µM. For the same compound, the TGI [31] was > 100 µM, the TGI [32] was > 100 µM and the TGI [33] was > 100 µM. For the same compound, the TGI [34] was > 100 µM, the TGI [35] was > 100 µM and the TGI [36] was > 100 µM. The TGI [37] was > 100 µM, the TGI [38] was > 100 µM and the TGI [39] was > 100 µM. For the same compound, the TGI [41] was > 100 µM, the TGI [42] was > 100 µM and the TGI [43] was > 100 µM. For the same compound, the TGI [44] was > 100 µM, the TGI [45] was > 100 µM and the TGI [46] was > 100 µM. For the same compound, the TGI [56] was > 100 µM, the TGI [47] was > 100 µM and the TGI [48] was > 100 µM. The TGI [49] was > 100 µM, the TGI [50] was > 100 µM and the TGI [51] was > 100 µM. The TGI [57] was > 100 µM, the TGI [58] was > 100 µM and the TGI [52] was > 100 µM. For the same compound, the TGI [53] was > 100 µM.
`CCCCN(CCCC)c1ccc(N=Nc2ccc(S(=O)(=O)O)cc2)cc1` was tested, and the TGI [1] was 53.1 µM, the TGI [2] was 64.7 µM and the TGI [3] was > 100 µM. For the same compound, the TGI [4] was > 100 µM, the TGI [5] was > 100 µM and the TGI [6] was > 100 µM. The TGI [7] was > 100 µM, the TGI [8] was > 100 µM and the TGI [10] was 47.2 µM. For the same compound, the TGI [11] was 38.4 µM, the TGI [13] was > 100 µM and the TGI [54] was 73.7 µM. For the same compound, the TGI [14] was > 100 µM, the TGI [15] was > 100 µM and the TGI [16] was > 100 µM. The TGI [17] was 32.8 µM, the TGI [18] was > 100 µM and the TGI [19] was 74.7 µM. For the same compound, the TGI [20] was > 100 µM, the TGI [21] was > 100 µM and the TGI [24] was > 100 µM. For the same compound, the TGI [25] was > 100 µM, the TGI [26] was > 100 µM and the TGI [27] was > 100 µM. For the same compound, the TGI [28] was 29.4 µM, the TGI [29] was 37.8 µM and the TGI [30] was > 100 µM. For the same compound, the TGI [31] was 43.1 µM, the TGI [32] was 22.1 µM and the TGI [33] was 49.6 µM. For the same compound, the TGI [34] was 85.1 µM, the TGI [35] was 43.4 µM and the TGI [36] was 97.1 µM. For the same compound, the TGI [37] was 29.8 µM, the TGI [38] was 53.5 µM and the TGI [39] was > 100 µM. It also gave a TGI [40] of 35.2 µM, a TGI [41] of 85 µM and a TGI [43] of 39.2 µM. The TGI [44] was > 100 µM, the TGI [45] was 33.4 µM and the TGI [46] was 40.4 µM. The TGI [56] was 70.9 µM, the TGI [47] was 49.6 µM and the TGI [48] was > 100 µM. For the same compound, the TGI [49] was > 100 µM, the TGI [50] was > 100 µM and the TGI [51] was 44.9 µM. The TGI [57] was > 100 µM, the TGI [58] was 42.8 µM and the TGI [52] was 55.5 µM. The TGI [53] was > 100 µM.
